The values below come from EPA's ToxValDB 9.5 (doi:10.2903/j.efsa.2015.4020).

A value given as a limit tells only on which side of the number the result lay.

One series has as its system Apis mellifera. The conditions noted are these: acute, mortality.
In the next series the test system is Bibionidae. The settings on record: chronic/long-term; duration: 28 days.
For a further series, the system named is Daphnia magna. The conditions noted are these: chronic/long-term; duration: 21 days; reproduction.
For a further series, the system named is Folsomia candida. The settings on record: chronic/long-term; duration: 28 days.
For another series, the system named is Hypoaspis aculeifer. The conditions noted are these: chronic/long-term; duration: 28 days.
The next series has as its system Neomysis kadiakensis. The conditions noted are these: chronic/long-term; duration: 28 days; mortality.
Another series deals with Oryctolagus sp. The settings on record: reproduction developmental; body weight.
The next series has as its system Pimephales promelas. The conditions noted are these: mortality.
The subject of a further series is Rattus norvegicus. The conditions noted are these: for NOAEL: body weight.
Another series deals with Aphidius rhopalosiphi. Nature of the series: LR50; higher = less toxic. The conditions noted are these: not reported; mortality.
The subject of the next series is Typhlodromus pyri. Nature of the series: LR50; higher = less toxic. The settings on record: not reported; mortality.

The term NOAEL denotes the highest dose or exposure tested at which no adverse effect was seen. Regarding `O=C1C=C(N(Cc2ccc(Cl)nc2)CC(F)F)CO1` [Flupyradifurone], the LD50 stood at 123 µg/piece with Apis mellifera (dermal); 1.2 µg/piece with Apis mellifera (oral, unspecified); 232 mg/kg-day in the series on Colinus virginianus (acute, oral, mortality); 1610 mg/kg-day in the series with Rattus norvegicus (acute, mortality). Besides, the NOEC worked out at 0.00681 mg/L with Bibionidae; 3.2 mg/L in the series with Daphnia magna; 1.44 mg/kg in the series on Folsomia candida; 170 mg/kg in the series on Hypoaspis aculeifer; 0.0132 mg/L in the series with Neomysis kadiakensis; 4.41 mg/L with Pimephales promelas (chronic/long-term, duration: 35 days). Further, the NOEC in the series with Tagia sp. (chronic/long-term, duration: 56 days) worked out at 1.5 mg/kg. In addition, the LC50 with Colinus virginianus (acute, oral, diet, mortality) was more than 470 mg/kg-day; in the series with Pimephales promelas (acute, duration: 96 hours), more than 70.5 mg/L; with Tagia sp. (acute, duration: 14 days, mortality) it was 186 mg/kg. For the same molecule, the NOAEL in the series on Colinus virginianus (reproduction developmental) was 14 mg/kg-day; in the series on Oryctolagus sp., 15 mg/kg-day; with Rattus norvegicus (chronic) it was 6.4 mg/kg-day; in the series with Rattus norvegicus (reproduction developmental), 6.4 mg/kg-day. The figures for the LR50 in the series on Aphidius rhopalosiphi and in the series on Typhlodromus pyri were less than 0.5 g/ha and 17 g/ha, respectively.
